What was measured:
[1] = target: Serine/threonine-protein kinase Nek6 (Homo sapiens, UniProt Q9HC98); assay: Inhibition of NEK6 (unknown origin) assessed as residual activity incubated for 5 mins in presence of [gamma-33ATP] by scintillation counting based radiometry assay
[2] = Cytotoxicity against HEK293 cells assessed as reduction in cell viability incubated for 72 hrs by Cell Titer Glo 2.0 reagent based assay; conditions: human
[3] = target: T1, Mitogen-activated protein kinase kinase kinase kinase 3 (Homo sapiens, UniProt Q8IVH8); assay: Inhibition of MAP4K3 (unknown origin) assessed as residual activity incubated for 5 mins in presence of [gamma-33ATP] by scintillation counting based radiometry assay
T1 sequence (Q8IVH8 whole entry): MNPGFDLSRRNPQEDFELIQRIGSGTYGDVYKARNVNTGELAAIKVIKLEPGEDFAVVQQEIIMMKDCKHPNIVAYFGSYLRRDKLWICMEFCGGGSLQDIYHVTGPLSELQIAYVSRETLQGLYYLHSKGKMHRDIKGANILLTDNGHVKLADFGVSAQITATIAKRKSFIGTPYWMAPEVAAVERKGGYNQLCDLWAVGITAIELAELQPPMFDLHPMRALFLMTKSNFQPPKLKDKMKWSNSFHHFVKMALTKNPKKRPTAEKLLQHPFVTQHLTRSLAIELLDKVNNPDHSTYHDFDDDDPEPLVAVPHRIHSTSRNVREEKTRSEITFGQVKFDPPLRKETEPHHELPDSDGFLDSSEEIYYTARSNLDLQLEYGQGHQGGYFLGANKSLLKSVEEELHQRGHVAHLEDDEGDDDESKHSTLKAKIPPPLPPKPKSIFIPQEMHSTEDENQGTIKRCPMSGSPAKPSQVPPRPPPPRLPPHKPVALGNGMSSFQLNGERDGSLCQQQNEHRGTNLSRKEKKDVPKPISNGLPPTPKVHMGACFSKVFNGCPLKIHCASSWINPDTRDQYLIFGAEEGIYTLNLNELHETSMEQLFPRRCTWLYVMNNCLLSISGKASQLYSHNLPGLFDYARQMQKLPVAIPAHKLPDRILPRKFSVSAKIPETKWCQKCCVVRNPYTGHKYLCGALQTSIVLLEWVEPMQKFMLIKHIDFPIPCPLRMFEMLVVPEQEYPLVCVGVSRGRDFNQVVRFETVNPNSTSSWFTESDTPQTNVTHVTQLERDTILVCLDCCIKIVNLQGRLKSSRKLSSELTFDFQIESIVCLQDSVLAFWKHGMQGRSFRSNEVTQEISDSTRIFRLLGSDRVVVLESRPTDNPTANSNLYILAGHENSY

[4] = target: Ephrin type-A receptor 4 (Homo sapiens) (UniProt P54764); assay: Inhibition of EPHA4 (unknown origin) assessed as residual activity incubated for 5 mins in presence of [gamma-33ATP] by scintillation counting based radiometry assay
Sequence of Ephrin type-A receptor 4 (Homo sapiens) (P54764 whole entry, looked up, the tested form may be a part): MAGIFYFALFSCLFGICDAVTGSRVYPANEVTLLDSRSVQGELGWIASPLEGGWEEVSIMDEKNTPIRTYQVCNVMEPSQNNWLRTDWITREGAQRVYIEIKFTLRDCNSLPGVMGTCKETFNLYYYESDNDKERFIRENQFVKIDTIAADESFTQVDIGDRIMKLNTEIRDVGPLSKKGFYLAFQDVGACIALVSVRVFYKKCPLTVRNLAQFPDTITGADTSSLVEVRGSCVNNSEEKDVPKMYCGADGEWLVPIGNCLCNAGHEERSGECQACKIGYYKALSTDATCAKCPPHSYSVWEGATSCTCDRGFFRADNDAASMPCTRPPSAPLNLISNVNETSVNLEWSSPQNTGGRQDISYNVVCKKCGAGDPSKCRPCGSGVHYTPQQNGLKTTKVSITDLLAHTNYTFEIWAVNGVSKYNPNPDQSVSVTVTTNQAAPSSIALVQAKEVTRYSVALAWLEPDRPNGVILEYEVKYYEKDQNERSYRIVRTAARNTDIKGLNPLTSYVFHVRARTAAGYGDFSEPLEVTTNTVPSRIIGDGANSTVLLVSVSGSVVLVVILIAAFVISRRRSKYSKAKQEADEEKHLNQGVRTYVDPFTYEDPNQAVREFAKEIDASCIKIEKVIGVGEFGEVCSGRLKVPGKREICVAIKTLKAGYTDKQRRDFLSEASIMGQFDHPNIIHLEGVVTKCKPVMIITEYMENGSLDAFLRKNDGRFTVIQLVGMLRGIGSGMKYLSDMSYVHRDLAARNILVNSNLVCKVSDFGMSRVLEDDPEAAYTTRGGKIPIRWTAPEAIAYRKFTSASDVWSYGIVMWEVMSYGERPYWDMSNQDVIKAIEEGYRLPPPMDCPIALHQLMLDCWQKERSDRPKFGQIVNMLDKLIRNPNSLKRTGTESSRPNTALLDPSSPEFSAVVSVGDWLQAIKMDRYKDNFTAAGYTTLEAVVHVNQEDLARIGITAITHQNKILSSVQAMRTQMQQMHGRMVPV

[5] = target: T2, Discoidin domain-containing receptor 2 (Homo sapiens, UniProt Q16832); assay: Inhibition of DDR2 (unknown origin) assessed as residual activity incubated for 5 mins in presence of [gamma-33ATP] by scintillation counting based radiometry assay
T2 sequence (Q16832 whole entry): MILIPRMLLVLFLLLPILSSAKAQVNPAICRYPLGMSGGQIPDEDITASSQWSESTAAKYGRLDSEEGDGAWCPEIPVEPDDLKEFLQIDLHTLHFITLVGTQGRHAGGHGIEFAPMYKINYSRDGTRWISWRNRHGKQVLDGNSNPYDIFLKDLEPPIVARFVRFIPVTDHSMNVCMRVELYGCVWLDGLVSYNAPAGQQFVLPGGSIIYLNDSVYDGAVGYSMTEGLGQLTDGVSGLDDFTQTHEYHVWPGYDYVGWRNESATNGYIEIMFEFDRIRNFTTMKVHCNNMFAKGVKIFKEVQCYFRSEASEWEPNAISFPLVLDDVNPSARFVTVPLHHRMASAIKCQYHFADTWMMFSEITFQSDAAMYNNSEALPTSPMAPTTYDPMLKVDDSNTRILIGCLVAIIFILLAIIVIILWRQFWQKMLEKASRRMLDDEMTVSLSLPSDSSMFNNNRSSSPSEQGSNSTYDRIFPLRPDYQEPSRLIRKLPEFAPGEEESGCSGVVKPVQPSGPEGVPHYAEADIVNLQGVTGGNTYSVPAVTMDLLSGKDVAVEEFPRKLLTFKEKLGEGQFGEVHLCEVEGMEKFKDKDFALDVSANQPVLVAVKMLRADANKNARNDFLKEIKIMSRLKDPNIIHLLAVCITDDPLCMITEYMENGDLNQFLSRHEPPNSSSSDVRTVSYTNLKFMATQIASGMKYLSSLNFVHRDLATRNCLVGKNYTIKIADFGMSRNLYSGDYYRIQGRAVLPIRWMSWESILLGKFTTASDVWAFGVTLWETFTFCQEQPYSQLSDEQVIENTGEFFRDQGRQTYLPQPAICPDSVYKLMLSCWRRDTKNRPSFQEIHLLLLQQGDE

[6] = target: Ephrin type-A receptor 4 (Homo sapiens) (UniProt P54764); assay: Inhibition of EPHA4 (unknown origin) assessed as residual activity at 10 uM incubated for 5 mins in presence of [gamma-33ATP] by scintillation counting based radiometry assay relative to control
[7] = target: T3, Tyrosine-protein kinase ABL1 (Homo sapiens, UniProt P00519); assay: Inhibition of ABL1 (unknown origin) assessed as residual activity incubated for 5 mins in presence of [gamma-33ATP] by scintillation counting based radiometry assay
T3 sequence (P00519 whole entry): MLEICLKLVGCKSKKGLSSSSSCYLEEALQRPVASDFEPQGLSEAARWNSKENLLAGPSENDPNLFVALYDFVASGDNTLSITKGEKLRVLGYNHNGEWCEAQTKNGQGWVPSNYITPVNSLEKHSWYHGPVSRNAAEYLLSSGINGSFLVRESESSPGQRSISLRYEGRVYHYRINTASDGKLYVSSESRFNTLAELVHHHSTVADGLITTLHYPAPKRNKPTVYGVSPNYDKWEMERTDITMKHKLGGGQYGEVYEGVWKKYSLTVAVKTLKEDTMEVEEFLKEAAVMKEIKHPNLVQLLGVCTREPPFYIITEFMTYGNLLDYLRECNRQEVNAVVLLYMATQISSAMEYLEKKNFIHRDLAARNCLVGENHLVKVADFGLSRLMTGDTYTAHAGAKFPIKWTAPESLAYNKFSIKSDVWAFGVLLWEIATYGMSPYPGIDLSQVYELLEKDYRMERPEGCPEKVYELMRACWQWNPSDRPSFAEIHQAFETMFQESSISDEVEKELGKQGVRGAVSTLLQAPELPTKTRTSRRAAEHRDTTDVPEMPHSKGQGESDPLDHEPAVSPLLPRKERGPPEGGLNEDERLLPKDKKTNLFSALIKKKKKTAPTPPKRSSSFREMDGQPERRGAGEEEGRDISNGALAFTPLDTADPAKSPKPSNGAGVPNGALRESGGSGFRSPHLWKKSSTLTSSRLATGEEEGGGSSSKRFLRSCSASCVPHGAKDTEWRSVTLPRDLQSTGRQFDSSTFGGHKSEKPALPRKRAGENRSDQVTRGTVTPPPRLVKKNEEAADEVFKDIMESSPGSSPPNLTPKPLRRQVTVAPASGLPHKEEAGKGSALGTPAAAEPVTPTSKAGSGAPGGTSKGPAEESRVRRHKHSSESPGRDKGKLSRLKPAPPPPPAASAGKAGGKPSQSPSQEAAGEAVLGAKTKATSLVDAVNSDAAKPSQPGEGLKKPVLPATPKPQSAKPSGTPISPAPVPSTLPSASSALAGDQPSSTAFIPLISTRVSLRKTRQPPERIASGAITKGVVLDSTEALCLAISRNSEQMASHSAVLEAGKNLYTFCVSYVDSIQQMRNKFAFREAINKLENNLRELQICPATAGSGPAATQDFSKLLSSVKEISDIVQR

[8] = target: Proto-oncogene tyrosine-protein kinase Src (Homo sapiens, UniProt P12931); assay: Inhibition of SRC (unknown origin) assessed as residual activity incubated for 5 mins in presence of [gamma-33ATP] by scintillation counting based radiometry assay
Sequence of Proto-oncogene tyrosine-protein kinase Src (P12931 2-536 limits assumed): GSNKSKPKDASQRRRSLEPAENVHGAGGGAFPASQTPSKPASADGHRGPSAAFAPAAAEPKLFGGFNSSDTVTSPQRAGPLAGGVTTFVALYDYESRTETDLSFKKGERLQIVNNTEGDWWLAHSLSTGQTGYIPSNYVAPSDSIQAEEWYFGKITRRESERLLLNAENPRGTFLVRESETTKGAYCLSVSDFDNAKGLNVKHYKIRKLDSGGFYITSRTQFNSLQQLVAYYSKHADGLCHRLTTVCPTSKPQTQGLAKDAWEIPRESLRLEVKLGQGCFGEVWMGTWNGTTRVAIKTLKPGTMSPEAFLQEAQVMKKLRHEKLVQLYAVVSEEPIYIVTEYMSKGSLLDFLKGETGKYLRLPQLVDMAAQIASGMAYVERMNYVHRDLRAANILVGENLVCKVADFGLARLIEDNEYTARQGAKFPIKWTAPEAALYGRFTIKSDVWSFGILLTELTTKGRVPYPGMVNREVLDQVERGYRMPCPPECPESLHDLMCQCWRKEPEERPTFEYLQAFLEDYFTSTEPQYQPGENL

[9] = target: T3, Tyrosine-protein kinase ABL1; assay: Inhibition of human ABL1 assessed as residual activity using EAIYAAPFAKKK as substrate by [gamma-33P]-ATP assay
[10] = target: Tyrosine-protein kinase Lck (Homo sapiens, UniProt P06239); assay: Inhibition of LCK (unknown origin) assessed as residual activity incubated for 5 mins in presence of [gamma-33ATP] by scintillation counting based radiometry assay
Sequence of Tyrosine-protein kinase Lck (P06239 whole entry): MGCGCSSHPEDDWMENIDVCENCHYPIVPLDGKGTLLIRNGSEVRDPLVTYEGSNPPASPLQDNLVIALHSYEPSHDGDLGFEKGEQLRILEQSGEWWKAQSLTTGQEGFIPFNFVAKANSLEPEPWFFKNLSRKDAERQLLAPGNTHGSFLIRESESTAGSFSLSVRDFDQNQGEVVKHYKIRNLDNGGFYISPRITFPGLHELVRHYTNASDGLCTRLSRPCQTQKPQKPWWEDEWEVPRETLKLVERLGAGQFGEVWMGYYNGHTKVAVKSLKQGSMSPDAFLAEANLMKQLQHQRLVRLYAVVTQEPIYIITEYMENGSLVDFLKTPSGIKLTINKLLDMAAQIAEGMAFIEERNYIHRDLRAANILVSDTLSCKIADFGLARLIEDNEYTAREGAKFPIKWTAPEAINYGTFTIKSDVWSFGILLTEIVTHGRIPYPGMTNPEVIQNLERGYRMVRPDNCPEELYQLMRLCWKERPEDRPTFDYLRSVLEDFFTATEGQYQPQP

Sequence of Serine/threonine-protein kinase Nek6 (Q9HC98 whole entry): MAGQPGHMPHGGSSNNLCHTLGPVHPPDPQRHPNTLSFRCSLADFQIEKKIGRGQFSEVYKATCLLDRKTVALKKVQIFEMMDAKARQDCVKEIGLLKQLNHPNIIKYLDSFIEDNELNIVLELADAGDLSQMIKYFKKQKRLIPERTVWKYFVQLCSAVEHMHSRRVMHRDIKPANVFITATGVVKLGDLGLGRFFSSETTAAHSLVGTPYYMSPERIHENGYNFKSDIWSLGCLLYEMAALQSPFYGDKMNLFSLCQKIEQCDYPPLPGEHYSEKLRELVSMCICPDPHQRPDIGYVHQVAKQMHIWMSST

In the case of `Cc1ccc(C(=O)Nc2ccc(CN3Cc4cn[nH]c4C3)c(Cl)c2)cc1C#Cc1cnc2cccnn12`, the IC50 [1] is reported as 5350 nM, the CC50 at 72 h [2] is reported as greater than 50000 nM and the IC50 [3] is reported as 240 nM. It also gave an IC50 [4] of 84.6 nM, an IC50 [5] of 286 nM and an Activity [6] of 2%. The IC50 [7] was 1.3 nM, the IC50 [8] was 431 nM and the IC50 [9] was 8.31 nM. It also gave an IC50 [10] of 26.1 nM.

Reference: ChEMBL document CHEMBL4602709 (ACS Med Chem Lett, 2020)
